Measured values reported in patent US20090148850A1, “Methods for identifying modulators of P2RY14” (priority 2007, published 2009).

Assays:
[1] = test system: simian (chimpanzee) P2RY14; test: FLIPR whole cell Ca2+ agonist assay, HEK cells expressing simian (chimpanzee) P2RY14 and Gqi5; format: cell-based
Excerpt: (§1) Stable HEK clonal cell lines expressing P2RY14 and the chimeric G protein Gqi5 were constructed. The chimeric Gqi5 forces the coupling of P2RY14 through the Gq (calcium) pathway and allows for monitoring of calcium signaling using a calcium binding fluorescent dye and a FLIPR (fluorometric imaging plate reader, MDS Sciex). Vector pCEP4 comprising the chimeric Gqi5 was obtained from Molecular Devices, Sunnyvale, Calif. (Cat. No. RD-PGQI5).
The simian (chimpanzee) P2RY14 nucleic acid fragment was synthesized based upon the Ensembl Gene ID ENSPTRG00000030093 by Bio S & T, Montreal, Quebec, Canada, to be flanked with KpnI and NotI restriction enzyme sites. […] The DNA fragment was digested with KpnI and NotI and then cloned into a pcDEF3 vector previously digested with KpnI and NotI to place the DNA fragment in the proper orientation downstream of the human EF-1a promoter. The nucleic acid encoding the simian P2RY14 was under the control of the human EF-1a promoter.
(§2) Cells were grown in DMEM medium containing 25 mM HEPES, pH 7.4 and 10% FBS, 50 units/ml penicillin/50 μg/ml streptomycin, 2 mM glutamine and 1 mM sodium pyruvate at 37° C. in humidified air containing 5% CO2. Two days post-transfection, cells were grown under selection in the DMEM medium as indicated above and supplemented with 200 μg/ml Hygromycin B and 250 μg/ml geneticin.
(§3) Cells were incubated overnight at 37° C. and 5% CO2 to form a monolayer. On the following day, 30 μl of fluorescent no-wash dye was added to the cell monolayer and the plate was incubated for 60 minutes at 37° C., 5% CO2.
(§4) For agonist assays, 6.12 μl of 10× agonist solution was added to the cell/dye incubation and Ca^2+ signaling was monitored by FLIPR. For antagonist assays, 250 nl of compound in 100% DMSO was added to cell/dye mixture; following a 20 minute incubation at room temperature, 6.12 μl of 10× agonist solution at EC80 in HBSS containing 20 mM Hepes was added to cells and Ca^2+ signaling was monitored by FLIPR. Quantitation of the % stimulation or inhibition of Ca^2+ signaling by agonist or antagonist, respectively, was calculated using the Max-Min fluorescent signal detected.

simian P2RY14 = test: Membrane filtration binding assay, simian P2RY14; parameters: species or system chimpanzee; conditions: simian P2RY14 membranes
Procedure: Membrane preparations were made by N2 cavitation using a Parr unit. […] Cell were Dounce homogenized (size B, 10 strokes) and then added to the cavitation unit. Pressure was adjusted to 800 psi and cells were left under pressure for 30 minutes. Broken cells were released drop by drop and spun at 1000 g for 10 minutes. Supernatent was spun at 160,000 g (rotor type 60 Ti, 40000 rpm for 30 min). Pellet was resuspended in 10 mM HEPES/KOH pH 7.4, 1 mM EDTA in ⅕ the original volume, dounce homogenized (size A, 10 strokes), aliquoted, and frozen at −80° C.
Binding assays were performed in 10 mM Hepes pH 7.4 (KOH), 5 mM MnCl2, 5 mM MgCl2 buffer. Membranes (10 μg/well for human P2RY14 and 30 μg/well for simian P2RY14) were incubated with 10 nM [5.6-^3H] Uridine 5′-triphosphate (UTP), ammonium salt from Amersham Biosciences (# TRK412) in presence of compounds diluted in DMSO (2% final in assay), in a total volume of 100 μl. 50 minutes (human P2RY14) or 60 minutes (simian) P2RY14) incubations were performed at room temperature with shaking. […] To examine the stability of [^3H]-UTP in the membrane filtration binding assay, 100 ul aliquots of the reaction mixture were extracted at 2, 10, 20, 40, 60 and 90 minutes with 100 uL of cold 80 mM EDTA solution (pH 8) and 200 uL of cold Acetonitrile. After mixing, proteins were precipitated by centrifugation at 13000 rpm for 10 minutes at 4° C. […] After 0.5 min at 10:90 50 mM KH2PO4/750 mM KH2PO4, a gradient was applied in order to increase to 100% 750 mM KH2PO4 at 5 min, after which this composition was maintained for an additional 3 min. Samples were kept at 4° C. prior to HPLC analysis

P2RY14 [2] = molecular target: T1, P2RY14 (Homo sapiens, UniProt Q15391); test: FLIPR whole cell Ca2+ agonist assay, HEK cells expressing human P2RY14 and Gqi5; format: cell-based; parameters: expressed in transfected cells; conditions: HEK cells expressing human P2RY14 and Gqi5, FLIPR
T1 sequence (Q15391 1-338): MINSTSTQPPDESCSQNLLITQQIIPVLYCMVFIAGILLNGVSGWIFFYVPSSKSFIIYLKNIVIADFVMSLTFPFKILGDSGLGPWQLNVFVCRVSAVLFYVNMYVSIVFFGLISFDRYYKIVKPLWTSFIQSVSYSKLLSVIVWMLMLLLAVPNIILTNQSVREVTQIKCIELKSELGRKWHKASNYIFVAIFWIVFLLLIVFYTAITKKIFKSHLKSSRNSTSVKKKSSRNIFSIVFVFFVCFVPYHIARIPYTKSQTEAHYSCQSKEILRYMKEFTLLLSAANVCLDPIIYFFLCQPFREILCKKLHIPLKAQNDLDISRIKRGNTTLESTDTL
Excerpt: as §1
The human P2RY14 was PCR amplified from the I.M.A.G.E. clone obtained from Invitrogen, Carlsbad, Calif. […] The codon encoding glutamate at position 54 in the wild-type human P2RY14 was changed to code for lysine. […] The PCR reaction was done in two parts. In the first part, the reaction was 5 cycles at 94° C. for 30 seconds, 65° C. for 30 seconds, and 72° C. for 90 seconds. In the second part, the reaction was 25 cycles at 94° C. for 30 seconds, 70° C. for 30 seconds, 72° C. for 90 seconds. The last cycle was followed by 7 minutes at 72° C. The PCR amplified human P2RY14 was digested with KpnI and NotI and cloned into a pcDNA3.1 (+) vector previously digested with KpnI and NotI to place the DNA fragment in the proper orientation downstream of the CMV promoter. The nucleic acid encoding the human P2RY14 was under the control of the CMV promoter.
as §2, §3, §4

P2RY14 [3] = molecular target: T1, P2RY14; parameters: host or cells: yeast and HEK-293 cells (Chambers et al., J. Biol. Chem. 275: 10767-10771 (2000)); conditions: yeast and mammalian cells, Chambers et al. 2000; cited from earlier work

Compound: O=c1ccn([C@@H]2O[C@H](COP(=O)(O)O)[C@@H](O)[C@H]2O)c(=O)[nH]1 [UMP]
- activation of P2RY14 (Ca2+ signaling) [1]: activated
- competition for [3H]-UTP/[3H]-UDP binding (simian P2RY14): able to successfully compete
- Ki (simian P2RY14; 10 nM radioligand, read-out: Ki, competition for [3H]-UTP/[3H]-UDP binding): ~1000 nM
- activation of P2RY14 (Ca2+ signaling) (P2RY14 [2]): activated
- activation of P2RY14 (P2RY14 [3]): unable to activate
